From patent US20160046618A1, “Cyclopropyl Fused Thiazin-2-Amine Compounds as Beta-Secretase Inhibitors and Methods of Use” (AMGEN INC., priority 2014, published 2016)
Where two headings read alike, the source gives them in different places.

Tests used:
[1] = target: human recombinant BACE2 (Homo sapiens (Human), UniProt Q9Y5Z0); assay: In vitro enzymatic BACE2 FRET assay; type: biochemical; conditions: read-out: IC50 IP (μM) BACE2 enzyme
In short: (§1)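 Reactions were initiated by adding 50 nM of a peptide carrying fluorophore and quencher on opposite sides of the cleavage site and ran for one hour. Tris buffer then brought the pH to neutrality, ending the reaction, and fluorescence was measured (488 nm excitation, 590 nm emission).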

[2] = target: human recombinant BACE1 (Homo sapiens (Human), UniProt P56817); assay: In vitro enzymatic BACE1 FRET assay; type: biochemical; conditions: read-out: IC50 IP (μM) BACE1 enzyme
In short: as §1

[3] = target: Recombinant Cat D (Homo sapiens (Human), UniProt P07339); assay: In vitro enzymatic Cathepsin D (Cat D) FRET assay; type: biochemical; conditions: read-out: IC50 IP (μM) CatD
In short: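 Fluorescence at 500 nm excitation and 580 nm emission reports cleavage of a quenched fluorophore–quencher peptide (20 nM) by CHO-expressed Cat D. Reactions ran one hour in 0.05 M citrate pH 3.5, 5 mM CHAPS, 10% DMSO final before a Tris stop raised pH to neutrality.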

[4] = system: Aβ40 in conditioned medium of cells stably expressing Amyloid Precursor Protein (APP); assay: In vitro BACE-1 cell-based assay (Aβ40 sandwich ELISA); conditions: read-out: IC50 IP (μM) BACE1 cell
In short: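 Aβ40 in supernatants measured by time-resolved fluorescence sandwich ELISA, with pAb40 as capture and biotin-6E10 as detector antibody, each incubated at 4 °C.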

Sequence of human recombinant BACE1 (P56817 46-501): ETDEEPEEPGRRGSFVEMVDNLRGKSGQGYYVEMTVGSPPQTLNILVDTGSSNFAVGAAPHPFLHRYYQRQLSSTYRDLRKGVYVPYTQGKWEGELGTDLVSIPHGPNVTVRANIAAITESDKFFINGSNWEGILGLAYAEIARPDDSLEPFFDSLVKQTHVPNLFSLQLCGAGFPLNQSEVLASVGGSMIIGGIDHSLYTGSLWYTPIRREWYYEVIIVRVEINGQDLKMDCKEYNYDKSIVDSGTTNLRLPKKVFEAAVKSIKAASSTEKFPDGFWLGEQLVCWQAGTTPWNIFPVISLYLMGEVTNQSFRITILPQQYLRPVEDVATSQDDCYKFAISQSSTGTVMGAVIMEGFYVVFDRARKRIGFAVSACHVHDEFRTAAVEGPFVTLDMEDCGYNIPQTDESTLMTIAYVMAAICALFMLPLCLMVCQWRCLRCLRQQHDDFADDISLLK
Sequence of human recombinant BACE2 (Q9Y5Z0 63-518): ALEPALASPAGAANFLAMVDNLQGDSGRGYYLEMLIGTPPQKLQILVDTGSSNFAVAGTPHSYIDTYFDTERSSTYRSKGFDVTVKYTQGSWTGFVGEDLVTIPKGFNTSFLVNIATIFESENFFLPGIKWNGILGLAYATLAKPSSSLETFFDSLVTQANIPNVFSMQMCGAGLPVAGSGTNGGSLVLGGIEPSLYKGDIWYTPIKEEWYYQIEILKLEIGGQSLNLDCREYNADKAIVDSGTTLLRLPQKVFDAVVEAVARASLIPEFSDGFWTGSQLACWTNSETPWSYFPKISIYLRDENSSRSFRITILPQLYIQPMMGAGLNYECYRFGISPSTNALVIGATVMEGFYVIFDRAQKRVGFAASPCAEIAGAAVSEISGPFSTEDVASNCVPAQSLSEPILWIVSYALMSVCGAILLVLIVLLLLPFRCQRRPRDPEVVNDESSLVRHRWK
Sequence of Recombinant Cat D (P07339 65-412): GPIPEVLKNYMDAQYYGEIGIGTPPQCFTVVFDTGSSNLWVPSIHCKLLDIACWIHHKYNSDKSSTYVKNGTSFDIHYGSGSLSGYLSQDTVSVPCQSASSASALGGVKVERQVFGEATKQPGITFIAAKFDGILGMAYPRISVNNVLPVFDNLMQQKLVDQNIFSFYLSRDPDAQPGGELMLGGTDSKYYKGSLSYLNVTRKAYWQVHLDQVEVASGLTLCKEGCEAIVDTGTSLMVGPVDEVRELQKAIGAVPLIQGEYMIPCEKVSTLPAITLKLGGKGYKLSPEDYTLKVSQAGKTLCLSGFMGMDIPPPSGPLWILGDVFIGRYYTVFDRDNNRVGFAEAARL

Cc1cc(OC(F)F)cnc1C(=O)Nc1cc(F)c(F)c([C@@]2(CF)N=C(N)S[C@H]3C[C@H]32)c1 [Example 86, N-(3-((1S,5S,6S)-3-amino-5-(fluoromethyl)-2-thia-4-azabicyclo[4.1.0]hept-3-en-5-yl)-4,5-difluorophenyl)-5-(difluoromethoxy)-3-methyl-2-pyridinecarboxamide]
IC50 ([1]; BACE2 FRET enzyme assay): 0.0206 µM
IC50 ([2]; BACE1 FRET enzyme assay): 0.00763 µM
IC50 ([3]; Cathepsin D FRET enzyme assay): 715 µM
IC50 ([4]; BACE1 cell-based assay): 0.0501 µM

COc1cnc2c(Nc3cc(F)c(F)c([C@@]4(C)N=C(N)S[C@@]5(CO)C[C@H]54)c3)nccc2c1 [Example 89, ((1S,5S,6S)-3-amino-5-(2,3-difluoro-5-((3-methoxy-1,7-naphthyridin-8-yl)amino)phenyl)-5-methyl-2-thia-4-azabicyclo[4.1.0]hept-3-en-1-yl)methanol]
IC50 ([1]; BACE2 FRET enzyme assay): 0.0364 µM
IC50 ([2]; BACE1 FRET enzyme assay): 0.0228 µM
IC50 ([3]; Cathepsin D FRET enzyme assay): > 400 µM
IC50 ([4]; BACE1 cell-based assay): 0.0198 µM

COC[C@@]12C[C@@H]1[C@@](CF)(c1cc(Nc3nccc4cc(C#N)cnc34)cc(F)c1F)N=C(N)S2 [Example 90, 8-((3-((1R,5S,6R)-3-amino-5-(fluoromethyl)-1-(methoxymethyl)-2-thia-4-azabicyclo[4.1.0]hept-3-en-5-yl)-4,5-difluorophenyl)amino)-1,7-naphthyridine-3-carbonitrile]
IC50 ([1]; BACE2 FRET enzyme assay): 0.0112 µM
IC50 ([2]; BACE1 FRET enzyme assay): 0.00682 µM
IC50 ([3]; Cathepsin D FRET enzyme assay): 34.1 µM
IC50 ([4]; BACE1 cell-based assay): 0.128 µM

COc1cnc2c(Nc3cc(F)c(F)c([C@@]4(C)N=C(N)S[C@@]5(CO)C[C@H]54)c3)ncc(F)c2c1 [Example 91, ((1S,5S,6S)-3-amino-5-(2,3-difluoro-5-((5-fluoro-3-methoxy-1,7-naphthyridin-8-yl)amino)phenyl)-5-methyl-2-thia-4-azabicyclo[4.1.0]hept-3-en-1-yl)methanol]
IC50 ([1]; BACE2 FRET enzyme assay): 0.0111 µM
IC50 ([2]; BACE1 FRET enzyme assay): 0.00524 µM
IC50 ([3]; Cathepsin D FRET enzyme assay): 1210 µM
IC50 ([4]; BACE1 cell-based assay): 0.0256 µM

C[C@]1(c2cc(Nc3ncnc4cc(Cl)cnc34)cc(F)c2F)N=C(N)S[C@@]2(CO)C[C@H]21 [Example 92, ((1S,5S,6S)-3-amino-5-(5-((7-chloropyrido[3,2-d]pyrimidin-4-yl)amino)-2,3-difluorophenyl)-5-methyl-2-thia-4-azabicyclo[4.1.0]hept-3-en-1-yl)methanol]
IC50 ([1]; BACE2 FRET enzyme assay): 0.00373 µM
IC50 ([2]; BACE1 FRET enzyme assay): 0.0052 µM
IC50 ([3]; Cathepsin D FRET enzyme assay): 414 µM
IC50 ([4]; BACE1 cell-based assay): 0.0102 µM

COc1cnc2c(Nc3cc(F)c(F)c([C@@]4(C)N=C(N)S[C@@]5(CO)C[C@H]54)c3)nccc2n1 [Example 93, ((1S,5S,6S)-3-Amino-5-(2,3-difluoro-5-((2-methoxypyrido[3,4-b]pyrazin-5-yl)amino)phenyl)-5-methyl-2-thia-4-azabicyclo[4.1.0]hept-3-en-1-yl)methanol]
IC50 ([1]; BACE2 FRET enzyme assay): 0.0342 µM
IC50 ([2]; BACE1 FRET enzyme assay): 0.01 µM
IC50 ([3]; Cathepsin D FRET enzyme assay): 1380 µM
IC50 ([4]; BACE1 cell-based assay): 0.0108 µM

Cc1cc(C#N)cnc1C(=O)Nc1cc(F)c(F)c([C@@]2(C)N=C(N)S[C@@]3(C(F)F)C[C@@H]23)c1 [Example 94, N-(3-((1S,5S,6S)-3-amino-1-(difluoromethyl)-5-methyl-2-thia-4-azabicyclo[4.1.0]hept-3-en-5-yl)-4,5-difluorophenyl)-5-cyano-3-methylpicolinamide]
IC50 ([1]; BACE2 FRET enzyme assay): < 0.00203 µM
IC50 ([2]; BACE1 FRET enzyme assay): 0.00053 µM
IC50 ([3]; Cathepsin D FRET enzyme assay): 559 µM
IC50 ([4]; BACE1 cell-based assay): 0.00304 µM

COC[C@@]12C[C@@H]1[C@@](CF)(c1cc(NC(=O)c3ccc(Cl)cn3)cc(F)c1F)N=C(N)S2 [Example 96, N-(3-((1R,5S,6R)-3-amino-5-(fluoromethyl)-1-(methoxymethyl)-2-thia-4-azabicyclo[4.1.0]hept-3-en-5-yl)-4,5-difluorophenyl)-5-chloro-2-pyridinecarboxamide]
IC50 ([1]; BACE2 FRET enzyme assay): 0.0024 µM
IC50 ([2]; BACE1 FRET enzyme assay): 0.00726 µM
IC50 ([3]; Cathepsin D FRET enzyme assay): 40.4 µM
IC50 ([4]; BACE1 cell-based assay): 0.0174 µM

N#Cc1cnc2c(Nc3ccc(F)c([C@@]4(CF)N=C(N)S[C@@]5(CF)C[C@H]54)c3)ncnc2c1 [Example 97, 4-((3-((1S,5S,6S)-3-amino-1,5-bis(fluoromethyl)-2-thia-4-azabicyclo[4.1.0]hept-3-en-5-yl)-4-fluorophenyl)amino)pyrido[3,2-d]pyrimidine-7-carbonitrile]
IC50 ([1]; BACE2 FRET enzyme assay): 0.0632 µM
IC50 ([2]; BACE1 FRET enzyme assay): 0.0118 µM
IC50 ([3]; Cathepsin D FRET enzyme assay): 752 µM
IC50 ([4]; BACE1 cell-based assay): 0.0312 µM

C[C@]1(c2cc(NC(=O)c3ccc(Cl)cn3)cnc2F)N=C(N)S[C@@]2(CF)C[C@H]21 [Example 98, N-(5-((1S,5S,6S)-3-amino-1-(fluoromethyl)-5-methyl-2-thia-4-azabicyclo[4.1.0]hept-3-en-5-yl)-6-fluoropyridin-3-yl)-5-chloropicolinamide]
IC50 ([1]; BACE2 FRET enzyme assay): 0.0032 µM
IC50 ([2]; BACE1 FRET enzyme assay): 0.00665 µM
IC50 ([3]; Cathepsin D FRET enzyme assay): 3140 µM
IC50 ([4]; BACE1 cell-based assay): 0.0056 µM

COC(=O)[C@]12C[C@H]1[C@@](C)(c1cc(NC(=O)c3ccc(Cl)cn3)cnc1F)N=C(N)S2 [Example 99, (1S,5S,6S)-methyl 3-amino-5-(5-(5-chloropicolinamido)-2-fluoropyridin-3-yl)-5-methyl-2-thia-4-azabicyclo[4.1.0]hept-3-ene-1-carboxylate]
IC50 ([1]; BACE2 FRET enzyme assay): 0.00824 µM
IC50 ([2]; BACE1 FRET enzyme assay): 0.00659 µM
IC50 ([3]; Cathepsin D FRET enzyme assay): 1130 µM
IC50 ([4]; BACE1 cell-based assay): 0.0659 µM

C[C@]1(c2cc(NC(=O)c3ccc(Cl)cn3)cnc2F)N=C(N)S[C@@]2(CO)C[C@H]21 [Example 100, N-(5-((1S,5S,6S)-3-amino-1-(hydroxymethyl)-5-methyl-2-thia-4-azabicyclo[4.1.0]hept-3-en-5-yl)-6-fluoropyridin-3-yl)-5-chloropicolinamide]
IC50 ([1]; BACE2 FRET enzyme assay): 0.0038 µM
IC50 ([2]; BACE1 FRET enzyme assay): 0.0225 µM
IC50 ([3]; Cathepsin D FRET enzyme assay): > 400 µM
IC50 ([4]; BACE1 cell-based assay): 0.0112 µM

C[C@]1(c2cc(Nc3ncnc4cc(C#N)cnc34)ccc2F)N=C(N)S[C@@H]2[C@H]1C2(F)F [Example 101, 4-((3-((1R,5S,6R)-3-amino-7,7-difluoro-5-methyl-2-thia-4-azabicyclo[4.1.0]hept-3-en-5-yl)-4-fluorophenyl)amino)pyrido[3,2-d]pyrimidine-7-carbonitrile]
IC50 ([1]; BACE2 FRET enzyme assay): 0.023 µM
IC50 ([2]; BACE1 FRET enzyme assay): 0.0197 µM
IC50 ([3]; Cathepsin D FRET enzyme assay): 720 µM
IC50 ([4]; BACE1 cell-based assay): 0.094 µM

C#CCOc1cnc(C(=O)Nc2ccc(F)c([C@@]3(C)N=C(N)S[C@@H]4[C@H]3C4(F)F)c2)c(C)n1 [Example 102, N-(3-((1R,5S,6R)-3-amino-7,7-difluoro-5-methyl-2-thia-4-azabicyclo[4.1.0]hept-3-en-5-yl)-4-fluorophenyl)-3-methyl-5-(prop-2-yn-1-yloxy)pyrazine-2-carboxamide]
IC50 ([1]; BACE2 FRET enzyme assay): 0.019 µM
IC50 ([2]; BACE1 FRET enzyme assay): 0.00433 µM
IC50 ([3]; Cathepsin D FRET enzyme assay): 361 µM
IC50 ([4]; BACE1 cell-based assay): 0.058 µM

C#CCOc1cnc2c(Nc3cnc(F)c([C@@]4(C)N=C(N)S[C@@]5(CF)C[C@H]54)c3)nccc2n1 [Example 601, N-(5-((1S,5S,6S)-3-amino-1-(fluoromethyl)-5-methyl-2-thia-4-azabicyclo[4.1.0]hept-3-en-5-yl)-6-fluoro-3-pyridinyl)-2-(2-propyn-1-yloxy)pyrido[3,4-b]pyrazin-5-amine]
IC50 [1]: 0.0361 µM
IC50 [2]: 0.000589 µM
IC50 [3]: 1680 µM
IC50 [4]: 0.00235 µM

C[C@]1(c2cc(Nc3nccc4nc(OCc5ncco5)cnc34)cnc2F)N=C(N)S[C@@]2(CF)C[C@H]21 [Example 602, N-(5-((1S,5S,6S)-3-amino-1-(fluoromethyl)-5-methyl-2-thia-4-azabicyclo[4.1.0]hept-3-en-5-yl)-6-fluoro-3-pyridinyl)-2-(1,3-oxazol-2-ylmethoxy)pyrido[3,4-b]pyrazin-5-amine]
IC50 [1]: 0.0371 µM
IC50 [2]: 0.000871 µM
IC50 [3]: 605 µM
IC50 [4]: 0.00204 µM
